In general, IC50 refers to the point on the concentration scale where inhibition reaches its midpoint.

Drawing on ChEMBL document CHEMBL5214990, “Novel Aryl Alkamidazole Derivatives as Multifunctional Antifungal Inhibitors: Design, Synthesis, and Biological Evaluation” (J Med Chem, 2022), this text covers Activity, Drug uptake and IC50 for three compounds.

Data set [1] relates to Candida albicans. Kind of data set: Increase in intracellular ROS level in Candida albicans assessed as fold increase in fluorescence intensity measured after 12 hrs by fluorescence microscopic analysis relative to control. Type of data set: functional.
A further data set deals with Cryptococcus neoformans. Kind of data set: Increase in intracellular ROS level in Cryptococcus neoformans assessed as fold increase in fluorescence intensity measured after 12 hrs by fluorescence microscopic analysis relative to control. Type of data set: functional.
In data set [2] the test system is Candida albicans. Description: Induction of morphological changes in Candida albicans ATCC SC5314 assessed as disintegration of fungal cell membrane and cell wall measured after 96 hrs by transmission electron microscopy. It is filed as functional, organism-based.
Data set [3] is described as follows: Drug uptake in Candida albicans ATCC SC5314 assessed as increase in red and green fluorescence intensity measured after 10 hrs by PI/Hoechst […] staining based fluorescence microscopy. Type of data set: ADME.
For data set [4], the system named is Candida albicans. Kind of data set: Induction of morphological changes in Candida albicans ATCC SC5314 assessed as fungal cells with edema, cavitation, nuclear enrichment, accumulation of low density granular materials measured after 48 to 72 hrs by transmission electron microscopy. Type of data set: functional, organism-based. The conditions noted are these: time 48-72 hrs.

Data set [5] deals with T1, Prostaglandin G/H synthase 2 (Homo sapiens, UniProt P35354).
T1 sequence (P35354 whole entry): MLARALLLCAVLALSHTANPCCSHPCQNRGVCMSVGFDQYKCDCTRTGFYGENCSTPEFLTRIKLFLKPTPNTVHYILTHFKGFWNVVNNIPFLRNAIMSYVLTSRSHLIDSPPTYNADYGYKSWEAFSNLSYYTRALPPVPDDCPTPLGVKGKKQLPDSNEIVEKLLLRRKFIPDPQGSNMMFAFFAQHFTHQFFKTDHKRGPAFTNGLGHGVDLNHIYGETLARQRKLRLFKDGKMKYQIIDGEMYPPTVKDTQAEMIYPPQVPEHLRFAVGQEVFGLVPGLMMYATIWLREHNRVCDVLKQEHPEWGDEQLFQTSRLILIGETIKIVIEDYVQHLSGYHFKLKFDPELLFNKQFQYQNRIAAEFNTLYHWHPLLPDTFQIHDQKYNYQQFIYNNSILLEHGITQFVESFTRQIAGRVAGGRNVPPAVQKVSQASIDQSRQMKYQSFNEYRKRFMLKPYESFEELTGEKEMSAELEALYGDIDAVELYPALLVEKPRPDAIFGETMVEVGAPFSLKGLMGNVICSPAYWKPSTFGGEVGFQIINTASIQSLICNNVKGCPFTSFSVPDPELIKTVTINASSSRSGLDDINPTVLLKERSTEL
Description: Inhibition of COX2 (unknown origin) assessed as reduction in PGF2alpha content using arachidonic acid as substrate preincubated for 10 mins followed by substrate addition and measured after 2 mins by enzyme immunoassay.

The subject of data set [6] is Candida albicans. Description: Induction of morphological changes in Candida albicans ATCC SC5314 assessed as fungal cells with irregular shrunken characteristics measured after 48 to 72 hrs by transmission electron microscopy. Type of data set: functional, organism-based. The note with it: time 48-72 hrs.
Data set [7] relates to Candida albicans. Kind of data set: Induction of morphological changes in Candida albicans ATCC SC5314 assessed as rupturing of marginal regions measured after 96 hrs by transmission electron microscopy. It is filed as functional, organism-based.
Data set [8] has as its system Candida albicans. Description: Induction of morphological changes in Candida albicans ATCC SC5314 assessed as reduction in fungal cell thickness measured after 48 to 72 hrs by transmission electron microscopy. The note with it: time 48-72 hrs. It is filed as functional, organism-based.
For data set [9], the system named is Candida albicans. Description: Induction of morphological changes in Candida albicans ATCC SC5314 assessed as exudation of fungal cell contents to the external region measured after 96 hrs by transmission electron microscopy. It is filed as functional, organism-based.

Active and inactive are the calls of the source. The calls are words filed in the database; no cut-off is given here.

Take `OC(Cn1cncn1)(Cn1cncn1)c1ccc(F)cc1F` [FLUCONAZOLE]: the result in the data set with Candida albicans [1] and in the data set on Cryptococcus neoformans was Active.
Take `C[C@H](C(=O)N(C)CC(O)(Cn1ccnc1)c1ccc(Cl)cc1Cl)c1cccc(C(=O)c2ccccc2)c1` (some centres not stated): the result in the data set on Candida albicans [2], with Candida albicans [4], with Candida albicans [6], with Candida albicans [7], in the data set on Candida albicans [8] and in the data set on Candida albicans [9] was Active. The Drug uptake result in [3] was “Active”. For the same compound, the IC50 in data set [5] turned out to be 1.93 µM.
Consider `C[C@H](C(=O)N(C)CC(O)(Cn1ccnc1)c1ccc(Cl)cc1)c1ccc(-c2ccccc2)c(F)c1` (some centres not stated), for which the Drug uptake entry in data set [3] was “Active”. In addition, in data set [5], the 50% inhibitory concentration (IC50) came out at 2.29 µM.
